# Patent US6479454B1, “Antimicrobial compositions and methods containing hydrogen peroxide and octyl amine oxide” (Ecolab Inc., priority 2000, dated 2002)
# Key:
# Pseudomonas aeruginosa = experiment: Minimal Bactericidal Concentration (MBC), Ecolab S.O.P. Method MS009 (A.O.A.C. Method 960.09); format: cell-based
# Procedure: The term Minimal Bactericidal Concentration is used in the present invention to mean a 5 log reduction in microbe count.
# An experiment was conducted to determine the Minimal Bactericidal Concentration (MBC) of octyldimethylamine oxide alone, hydrogen peroxide alone and two mixtures of octyldimethylamine oxide with hydrogen peroxide against Pseudomonas aeruginosa. Experiments were conducted using standard bacteriological techniques, specifically Ecolab Microbiological Services S.O.P. Method MS009 (reference to A.O.A.C. Method 960.09). […] The 50%/50% relative composition of amine oxide:hydrogen peroxide has a pH of 7.4 and an oxidation potential of 250 mV when diluted to 1.7% total oxidizer.
# Salmonella javiana = experiment: Antimicrobial activity (log reduction) on a tomato surface; format: cell-based
# Procedure: A second experiment was conducted to determine the synergistic effects of mixing an amine oxide, peracetic acid and hydrogen peroxide. Combinations of peracetic acid and hydrogen peroxide were measured in the presence and absence of a tetradecyl-dimethylamine oxide for antimicrobial activity against Salmonella javiana. Testing was performed on a tomato surface.
smiles,measurement,setting,value
"OO [0/100, hydrogen peroxide]",MBC ppm peroxide,"Pseudomonas aeruginosa; MBC = 5 log reduction in microbe count, expressed as hydrogen peroxide concentration",">2,000 ppm"
"CCCCCCCC[N+](C)(C)[O-] [100/0, octyldimethylamine oxide]",concentration required to obtain MBC,Pseudomonas aeruginosa; MBC = 5 log reduction,greater than 2000 parts per million
same,MBC,"Pseudomonas aeruginosa; Pseudomonas aeruginosa, MBC = 5 log reduction in microbe count, expressed as octyldimethylamine oxide concentration, read-out: MBC ppm amine oxide",> 2000 µg/mL
"CCCCCCCCCCCCCC[N+](C)(C)[O-] [Amine Oxide Alone, tetradecyl-dimethylamine oxide]",Log Reduction (S. Javiana),Salmonella javiana; ppm of each component as given in the table row,<0.2
same,antimicrobial activity against S. javiana (in words),Salmonella javiana; text summary of Table II,fairly ineffective
